Measurements published in article PMC9036794, “Improving astaxanthin production in Escherichia coli by co-utilizing CrtZ enzymes with different substrate preference” (Microbial Cell Factories, 2022).

Legend:
Type in all cases: cell-based
[1] = target: T1, PCcrtZ (Paracoccus sp. PC1, UniProt Q44262); test: astaxanthin formed in canthaxanthin-producing E. coli, HPLC; settings: engineered E. coli Can004 background (Ast016, Ast017), shake flask, 30 °C; conversion to astaxanthin; whole-cell titre only
T1 construct: gene crtZ; synthesized gene, integrated into E. coli chromosome (manA site) under P-trc; whole-cell read-out
T1 sequence (Q44262 1-162): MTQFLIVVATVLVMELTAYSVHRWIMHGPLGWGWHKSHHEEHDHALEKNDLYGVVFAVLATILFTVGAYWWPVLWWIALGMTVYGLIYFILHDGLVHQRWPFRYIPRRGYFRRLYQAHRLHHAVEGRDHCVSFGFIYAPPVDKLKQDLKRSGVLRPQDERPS

[2] = target: T2, PAcrtZ (Pantoea agglomerans, UniProt E9LFG1); test: as above; settings: engineered E. coli Can004 background (Ast014, Ast015), shake flask, 30 °C; conversion to astaxanthin; whole-cell titre only
T2 construct: gene crtZ; gene integrated into E. coli chromosome (manA site) under P-trc; whole-cell read-out

[3] = target: T3, crtW* (Brevundimonas sp. NBRC 101024, UniProt Q4W8B8); test: canthaxanthin formed in beta-carotene-producing E. coli, HPLC; settings: engineered E. coli (Can003, Can004), shake flask, 30 °C; conversion to canthaxanthin; whole-cell titre only
T3 construct: integrated into E. coli chromosome (mgsA, lacZ sites) under P-trc; whole-cell read-out
T3 sequence (Q4W8B8 1-244): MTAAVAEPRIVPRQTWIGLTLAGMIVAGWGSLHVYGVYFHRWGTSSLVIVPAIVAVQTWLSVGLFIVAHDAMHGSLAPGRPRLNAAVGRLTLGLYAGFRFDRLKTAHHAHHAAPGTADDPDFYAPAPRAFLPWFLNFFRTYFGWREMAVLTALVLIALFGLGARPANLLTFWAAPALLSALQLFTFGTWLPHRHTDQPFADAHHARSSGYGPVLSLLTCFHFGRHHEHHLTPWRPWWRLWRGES

[4] = target: T2, PAcrtZ; test: zeaxanthin formed in beta-carotene-producing E. coli, HPLC; settings: engineered E. coli CAR032 background (Zea003, Zea004), shake flask, 30 °C; conversion to zeaxanthin; whole-cell titre only
[5] = target: T1, PCcrtZ; test: as above; settings: engineered E. coli CAR032 background (Zea001, Zea002), shake flask, 30 °C; conversion to zeaxanthin, weak; whole-cell titre only
Description: zeaxanthin formed in beta-carotene-producing E. coli, HPLC on PCcrtZ | PCcrtZ from Paracoccus sp.

T2 sequence (E9LFG1 entry or part of it): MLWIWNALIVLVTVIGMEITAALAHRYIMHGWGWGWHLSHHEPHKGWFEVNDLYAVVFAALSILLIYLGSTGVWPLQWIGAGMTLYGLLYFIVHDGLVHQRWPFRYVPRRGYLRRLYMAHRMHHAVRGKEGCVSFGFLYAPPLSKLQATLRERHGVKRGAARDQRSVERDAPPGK

## CC1=C(/C=C/C(C)=C/C=C/C(C)=C/C=C/C=C(C)/C=C/C=C(C)/C=C/C2=C(C)C(=O)CCC2(C)C)C(C)(C)CCC1=O [canthaxanthin]
[1]
  astaxanthin formed in canthaxanthin-producing E. coli, HPLC: Ast016 (Can004 with one copy of PCcrtZ) produced similar amounts of astaxanthin
[2]
  astaxanthin formed in canthaxanthin-producing E. coli, HPLC: Ast014 (Can004 with one copy of PAcrtZ)

## CC1=C(/C=C/C(C)=C/C=C/C(C)=C/C=C/C=C(C)/C=C/C=C(C)/C=C/C2=C(C)CCCC2(C)C)C(C)(C)CCC1 [β-carotene]
[3]
  canthaxanthin formed in beta-carotene-producing E. coli, HPLC: CrtW converts β-carotene into keto-carotenoids
[4]
  zeaxanthin formed in beta-carotene-producing E. coli, HPLC: PAcrtZ from P. agglomerans therefore exhibited a substrate preference for β-carotene
[5]
  zeaxanthin formed in beta-carotene-producing E. coli, HPLC: PCcrtZ from Paracoccus sp. PC1 showed weak activity in the conversion of β-carotene into zeaxanthin
